Assay results from the NIST ThermoML archive (doi:10.1021/je060271a).

Conditions: 343.15 K, Liquid, Vibrating tube method

CCCCCCC(=O)OCC(COC(=O)CCCCCC)(COC(=O)CCCCCC)COC(=O)CCCCCC [pentaerythritol tetraheptanoate]
Conditions	mass density [kg/m3]
7850.3 kPa	946.4
7873.8 kPa	946.5
7893.3 kPa	946.5
7913.5 kPa	946.6
7937 kPa	946.6
7957 kPa	946.6
7977.2 kPa	946.6
8001.2 kPa	946.6
8021.7 kPa	946.5
8042.2 kPa	946.6
8067.3 kPa	946.5
8088 kPa	946.6
8109.4 kPa	946.6
8130.2 kPa	946.6
8151.8 kPa	946.6
8177.7 kPa	946.8
8199.3 kPa	946.8
8220.8 kPa	946.7
8246.2 kPa	946.7
8268.1 kPa	946.7
8290 kPa	946.7
8311.6 kPa	946.9
8338.1 kPa	946.7
8361.6 kPa	946.7
8384.3 kPa	946.8
8406.7 kPa	946.8
8433.8 kPa	946.9
8456.2 kPa	946.9
8479.4 kPa	946.9
8502.3 kPa	946.8
8530.3 kPa	946.9
8553.5 kPa	946.9
8577.2 kPa	946.9
8605.4 kPa	947
8629.1 kPa	947
8653.2 kPa	947
8683.2 kPa	947
8702.1 kPa	947.2
8731.5 kPa	947.1
8755.6 kPa	947.1
8780.3 kPa	947.2
8809.9 kPa	947.1
8834.4 kPa	947.2
8864.2 kPa	947.3
8889.4 kPa	947.1
8914.2 kPa	947.2
8939.2 kPa	947.2
8970.1 kPa	947.3
8995.6 kPa	947.2
9022.5 kPa	947.3
9053.7 kPa	947.3
9079.4 kPa	947.3
9110.6 kPa	947.5
9136.4 kPa	947.5
9163.7 kPa	947.4
9195.6 kPa	947.5
9222.6 kPa	947.5
9249.7 kPa	947.4
9282.3 kPa	947.4
9309.7 kPa	947.4
9337.9 kPa	947.6
9371.4 kPa	947.5
9400.1 kPa	947.5
9428.6 kPa	947.6
9456.7 kPa	947.6
9491 kPa	947.7
9519.9 kPa	947.6
9549 kPa	947.8
9584 kPa	947.6
9613.7 kPa	947.9
9649.3 kPa	947.7
9679.5 kPa	947.8
9709.5 kPa	947.9
9739.8 kPa	947.8
9777.3 kPa	947.7
9809 kPa	947.8
9840.2 kPa	947.9
9878.1 kPa	948
9910.3 kPa	947.8
9943.2 kPa	947.8
9983.2 kPa	948
10018 kPa	947.9
10052 kPa	947.9
10080 kPa	948.1
10104 kPa	948.1
10124 kPa	948
10144 kPa	948
10169 kPa	948.1
10189 kPa	948.2
10207 kPa	948.2
10224 kPa	948.1
10244 kPa	948.2
10261 kPa	948.2
10281 kPa	948.2
10298 kPa	948.3
10315 kPa	948.2
10335 kPa	948.2
10352 kPa	948.3
10370 kPa	948.3
10390 kPa	948.3
10408 kPa	948.2
10425 kPa	948.3
10445 kPa	948.3
10463 kPa	948.3
10481 kPa	948.2
10502 kPa	948.4
10520 kPa	948.3
10537 kPa	948.3
10558 kPa	948.4
10576 kPa	948.3
10594 kPa	948.4
